{"source": "paper PMC9374744", "about": "“Structural basis for receptor selectivity and inverse agonism in S1P5 receptors” (Nature Communications, 2022)", "key": {"human S1P5 Y19A mutant": {"target": "human S1P5 Y19A mutant (Homo sapiens, UniProt Q9H228, Y19A)", "sequence (Q9H228 whole entry Y19A)": "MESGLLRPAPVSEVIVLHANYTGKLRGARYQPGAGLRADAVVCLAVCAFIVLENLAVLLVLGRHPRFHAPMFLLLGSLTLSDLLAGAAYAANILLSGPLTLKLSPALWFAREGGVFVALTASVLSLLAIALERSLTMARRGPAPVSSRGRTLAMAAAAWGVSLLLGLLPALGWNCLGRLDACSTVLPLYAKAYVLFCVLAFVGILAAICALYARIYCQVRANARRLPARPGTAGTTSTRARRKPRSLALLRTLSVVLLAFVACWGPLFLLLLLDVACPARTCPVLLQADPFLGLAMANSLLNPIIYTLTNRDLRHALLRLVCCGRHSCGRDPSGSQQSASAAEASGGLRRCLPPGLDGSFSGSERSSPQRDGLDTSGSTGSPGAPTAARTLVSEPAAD", "assay": "BRET-based cAMP Gi signaling assay, S1P5 Y19A", "details": "inverse agonism"}, "human S1P5 Y19F mutant": {"target": "human S1P5 Y19F mutant (Homo sapiens, UniProt Q9H228, Y19F)", "sequence (Q9H228 whole entry Y19F)": "as the sequence (Q9H228 whole entry Y19A) above, with A19F counted along it", "assay": "BRET-based cAMP Gi signaling assay, S1P5 Y19F", "details": "for BRET ratio, Supplementary Figure 6b: replicate values, listed as ONO"}, "human S1P5 K24Q mutant": {"target": "human S1P5 K24Q mutant (Homo sapiens, UniProt Q9H228, K24Q)", "sequence (Q9H228 whole entry K24Q)": "as the sequence (Q9H228 whole entry Y19A) above, with A19Y, K24Q counted along it", "assay": "BRET-based cAMP Gi signaling assay, S1P5 K24Q", "details": "inverse agonism"}, "human S1P5 K24R mutant": {"target": "human S1P5 K24R mutant (Homo sapiens, UniProt Q9H228, K24R)", "sequence (Q9H228 whole entry K24R)": "as the sequence (Q9H228 whole entry Y19A) above, with A19Y, K24R counted along it", "assay": "BRET-based cAMP Gi signaling assay, S1P5 K24R", "details": "for BRET ratio, Supplementary Figure 6b: replicate values, listed as ONO; for EC50: inverse agonism"}, "human S1P5 C43F mutant": {"target": "human S1P5 C43F mutant (Homo sapiens, UniProt Q9H228, C43F)", "sequence (Q9H228 whole entry C43F)": "as the sequence (Q9H228 whole entry Y19A) above, with A19Y, C43F counted along it", "assay": "BRET-based cAMP Gi signaling assay, S1P5 C43F", "details": "inverse agonism"}, "human S1P5 T79A mutant": {"target": "human S1P5 T79A mutant (Homo sapiens, UniProt Q9H228, T79A)", "sequence (Q9H228 whole entry T79A)": "as the sequence (Q9H228 whole entry Y19A) above, with A19Y, T79A counted along it", "assay": "BRET-based cAMP Gi signaling assay, S1P5 T79A", "details": "for EC50: inverse agonism; for BRET signal, raw replicates: Suppl. Fig. 6d, listed as ONO"}, "human S1P5 Y89W mutant": {"target": "human S1P5 Y89W mutant (Homo sapiens, UniProt Q9H228, Y89W)", "sequence (Q9H228 whole entry Y89W)": "as the sequence (Q9H228 whole entry Y19A) above, with A19Y, Y89W counted along it", "assay": "BRET-based cAMP Gi signaling assay, S1P5 Y89W", "details": "ONO, pEC50, M, Y89W; inverse agonism; mean ± SD, n=3"}, "[1]": {"details": "Figure 2c source data, N/R = no response"}}, "note": "“And” between values parts separate entries of the source, which are not always exact repeats. Equal values may be shown once.", "data": [{"smiles": "O=C(O)CCCN1CCc2cccc(OCCc3cccc4ccccc34)c2CC1", "note": "[ONO-5430608, 4-{6-[2-(1-naphthyl)ethoxy]-1,2,4,5-tetrahydro-3H-3-benzazepin-3-yl} butanoic acid]", "values": [{"measurement": "ONO-5430608 pEC50, single experiments #1-#3", "setting": "human S1P5 Y19A mutant; [1]", "value": "N/R"}, {"measurement": "ONO, pEC50, M", "setting": "human S1P5 Y19A mutant; n=3, N/R = no response", "value": "N/R"}, {"measurement": "BRET ratio, Supplementary Figure 6b", "setting": "human S1P5 Y19F mutant; [ONO] 0.169351 nM", "value": "0.7728 and 0.7856 and 0.7903 and 0.7898 and 0.7857 and 0.7721 and 0.7815 and 0.7858 and 0.7955"}, {"measurement": "BRET ratio, Supplementary Figure 6b", "setting": "human S1P5 Y19F mutant; [ONO] 0.508053 nM", "value": "0.7709 and 0.7829 and 0.7789 and 0.7882 and 0.7908 and 0.7857 and 0.7787 and 0.7826 and 0.7773"}, {"measurement": "BRET ratio, Supplementary Figure 6b", "setting": "human S1P5 Y19F mutant; [ONO] 1.52416 nM", "value": "0.7699 and 0.7813 and 0.7753 and 0.786 and 0.7843 and 0.7814 and 0.7777 and 0.78 and 0.7821"}, {"measurement": "BRET ratio, Supplementary Figure 6b", "setting": "human S1P5 Y19F mutant; [ONO] 4.57247 nM", "value": "0.7759 and 0.7968 and 0.7779 and 0.7827 and 0.7847 (2×) and 0.7768 and 0.7813 and 0.7893"}, {"measurement": "BRET ratio, Supplementary Figure 6b", "setting": "human S1P5 Y19F mutant; [ONO] 13.7174 nM", "value": "0.7824 (2×) and 0.7736 and 0.7864 and 0.7844 and 0.776 and 0.7899 and 0.7904 and 0.7943"}, {"measurement": "ONO-5430608 pEC50, single experiments #1-#3", "setting": "human S1P5 Y19F mutant; inverse agonism, Figure 2c source data, N/R = no response", "value": "N/R"}, {"measurement": "ONO, pEC50, M", "setting": "human S1P5 Y19F mutant; inverse agonism, n=3, N/R = no response", "value": "N/R"}, {"measurement": "ONO-5430608 pEC50, single experiments #1-#3", "setting": "human S1P5 K24Q mutant; [1]", "value": "N/R"}, {"measurement": "ONO, pEC50, M", "setting": "human S1P5 K24Q mutant; n=3, N/R = no response", "value": "N/R"}, {"measurement": "BRET ratio, Supplementary Figure 6b", "setting": "human S1P5 K24R mutant; K24R, [ONO] 0.169351 nM", "value": "0.7619 and 0.7605 and 0.7627 and 0.7643 and 0.765 and 0.7649 and 0.7612 and 0.7652 and 0.7621"}, {"measurement": "BRET ratio, Supplementary Figure 6b", "setting": "human S1P5 K24R mutant; K24R, [ONO] 0.508053 nM", "value": "0.7573 and 0.7607 and 0.7624 and 0.7643 and 0.7627 and 0.7635 and 0.7628 and 0.761 and 0.7617"}, {"measurement": "BRET ratio, Supplementary Figure 6b", "setting": "human S1P5 K24R mutant; K24R, [ONO] 1.52416 nM", "value": "0.7542 and 0.7548 and 0.7577 and 0.7568 (2×) and 0.7598 and 0.7585 and 0.7546 and 0.7523"}, {"measurement": "BRET ratio, Supplementary Figure 6b", "setting": "human S1P5 K24R mutant; K24R, [ONO] 4.57247 nM", "value": "0.7493 and 0.7475 and 0.7463 and 0.7487 and 0.7486 and 0.7479 and 0.7433 and 0.7453 and 0.7422"}, {"measurement": "BRET ratio, Supplementary Figure 6b", "setting": "human S1P5 K24R mutant; K24R, [ONO] 13.7174 nM", "value": "0.7349 and 0.7366 and 0.7407 and 0.7346 and 0.7367 and 0.7337 and 0.7316 and 0.7355 and 0.7298"}, {"measurement": "EC50", "setting": "human S1P5 K24R mutant; ONO, pEC50, M, K24R, mean ± SD, n=3", "value": 4.57, "unit": "nM"}, {"measurement": "EC50", "setting": "human S1P5 K24R mutant; ONO-5430608 pEC50, single experiments #1-#3, K24R, Figure 2c source data", "value": "4.65 nM and 4.87 nM and 4.1 nM"}, {"measurement": "EC50", "setting": "human S1P5 C43F mutant; ONO, pEC50, M, C43F, mean ± SD, n=3", "value": 4.47, "unit": "nM"}, {"measurement": "EC50", "setting": "human S1P5 C43F mutant; ONO-5430608 pEC50, single experiments #1-#3, C43F, Figure 2c source data", "value": "3.91 nM and 4.49 nM and 4.96 nM"}, {"measurement": "EC50", "setting": "human S1P5 T79A mutant; ONO, pEC50, M, T79A, mean ± SD, n=3", "value": 5.13, "unit": "nM"}, {"measurement": "EC50", "setting": "human S1P5 T79A mutant; ONO-5430608 pEC50, single experiments #1-#3, T79A, Figure 2c source data", "value": "3.81 nM and 5.96 nM and 5.8 nM"}, {"measurement": "BRET signal, raw replicates", "setting": "human S1P5 T79A mutant; [ONO] 0.169351 nM, T79A", "value": "0.7648 and 0.7694 and 0.7618 (2×) and 0.7719 and 0.7737 and 0.7678 and 0.7602 and 0.7581"}, {"measurement": "BRET signal, raw replicates", "setting": "human S1P5 T79A mutant; [ONO] 0.508053 nM, T79A", "value": "0.7658 and 0.7637 (2×) and 0.7584 and 0.7703 and 0.7711 and 0.7719 and 0.7599 and 0.7561"}, {"measurement": "BRET signal, raw replicates", "setting": "human S1P5 T79A mutant; [ONO] 1.52416 nM, T79A", "value": "0.7571 and 0.7588 and 0.7577 and 0.7674 and 0.7689 and 0.7688 and 0.7557 and 0.7543 and 0.7567"}, {"measurement": "BRET signal, raw replicates", "setting": "human S1P5 T79A mutant; [ONO] 4.57247 nM, T79A", "value": "0.7445 and 0.7467 and 0.7472 (2×) and 0.7504 and 0.7523 and 0.7521 and 0.7458 and 0.7451"}, {"measurement": "BRET signal, raw replicates", "setting": "human S1P5 T79A mutant; [ONO] 13.7174 nM, T79A", "value": "0.7344 and 0.7321 and 0.7375 and 0.7326 and 0.7336 and 0.7328 and 0.7266 and 0.7286 and 0.7299"}, {"measurement": "BRET signal, raw replicates", "setting": "human S1P5 T79A mutant; [ONO] 41.1523 nM, T79A", "value": "0.7277 and 0.7202 and 0.7265 and 0.7247 and 0.7224 and 0.7225 and 0.7195 and 0.7262 and 0.7173"}, {"measurement": "BRET signal, raw replicates", "setting": "human S1P5 T79A mutant; [ONO] 123.457 nM, T79A", "value": "0.7246 and 0.7211 and 0.7132 and 0.7206 and 0.7203 and 0.7177 and 0.7146 and 0.7143 and 0.7168"}, {"measurement": "BRET signal, raw replicates", "setting": "human S1P5 T79A mutant; [ONO] 370.37 nM, T79A", "value": "0.7198 and 0.7165 and 0.7203 and 0.7175 and 0.72 and 0.7188 and 0.7152 and 0.7138 and 0.7182"}, {"measurement": "BRET signal, raw replicates", "setting": "human S1P5 T79A mutant; [ONO] 1111.11 nM, T79A", "value": "0.7229 and 0.7217 and 0.7211 and 0.7178 and 0.7185 and 0.7189 and 0.7126 and 0.7148 and 0.7145"}, {"measurement": "BRET signal, raw replicates", "setting": "human S1P5 T79A mutant; [ONO] 3333.33 nM, T79A", "value": "0.7168 and 0.7147 and 0.7207 and 0.7195 and 0.7142 and 0.7166 and 0.7162 and 0.7151 and 0.7155"}, {"measurement": "EC50", "setting": "human S1P5 Y89W mutant", "value": 2.95, "unit": "nM"}]}]}
